Tests used:
[1] = test system: human foreskin fibroblast (HFF) cell monolayers; assay: Toxicity effects controls: sham-inoculated compound-treated HFF monolayers; type: cell-based; conditions: Experiment 5 (Table 13); note: key: +: toxic; -: no toxicity; ±: mild toxicity; T: toxicity effects interfered with CPE rating
Source text: (§1) With sufficient stirring, all the compounds completely dissolved.
In the tables, the symbols have the meaning indicated: […]

[2] = test system: HSV-1 McKrae Strain; assay: Direct virucidal efficacy against HSV-1 on HFF monolayers; type: cell-based; conditions: for virucidal efficacy (HSV-1 titer): Experiment 5 (Table 12), 24 h PI
Experimental: HSV-1 McKrae Strain was diluted to a final concentration of 10^5 PFU/ml in minimal essential medium (MEM). Hereinafter, this dilution is referred to as the HSV-1 Suspension for convenience.
as §1
Each of the drug solutions were mixed with the HSV-1 Suspension in a 1:1 ratio. The drug and HSV-1 Suspension mixture was incubated at 37° C. for thirty minutes with agitation every ten minutes. After the incubation, fifty microliter aliquots were overlaid onto triplicate confluent human foreskin fibroblast (HFF) cell monolayers. The inoculum was absorbed for thirty minutes and then a medium containing the appropriate drug concentration in MEM was added to the monolayers to a final volume of 0.5 milliliters per culture-well. The monolayers were incubated at 37° C. The developing HSV-1 Cytopathology was monitored daily for two days by inverted light microscopy. Titers were calculated by multiple regression analysis. All data is presented as the average PFU/ml reduction at 24 and/or 48 hours after inoculation (PI).
1. HSV-1 inoculated, non-compound treated HFF monolayers were included as "positive controls"; and […]

[3] = test system: RE strain HSV-1; assay: Topical efficacy in RE strain HSV-1-induced stromal keratitis in the rabbit; type: in vivo, NZW rabbit
Experimental: The following examples describe topical ocular evaluation of the inventive compounds during RE strain HSV-1-induced stromal keratitis in the rabbit. These evaluations included analysis of the topical efficacy of both the inventive compounds alone, or, in certain instances, in combination with trifluorothymidine (TFT). The evaluation was carried out by the combined analysis of both clinical and virological (HSV-1 recovery) parameters. The specified number of NZW rabbits (1.5-2.0 kg) were used. Animals were received at least two days prior to inoculation to allow them to accommodate to the conditions in the vivarium facility. This conditioning of the animals prior to inoculation minimizes animal variability. After the accommodation, the animals received a slit-lamp examination to exclude any animals with pre-existing anterior segment ocular defects. Animals were bi-laterally inoculated by intrastromal injection of 10^5 PFU RE strain HSV-1. The animals were then replaced individually into cages. On day number three post-inoculation (PI), the animals were evaluated by slit-lamp microscopy. Corneal stromal, iris and conjunctival disease were graded on an increasing scale of severity from 0+ to 4+. After evaluation, the animals were divided into a specified number of groups each containing an equal number of animals based on a matched corneal stromal involvement. Topical therapy was initiated immediately after animal groupings. All animals received daily slit-lamp evaluations from day 3 through 7 PI. The ocular HSV-1 induced disease severity was recorded daily. […] Differences in disease resolution and development of stromal alterations are statistically analyzed. Virus recovery during and after topical therapy was compared. The topical efficacy of Compounds 23 and 96 on stromal HSV-1 infection in the rabbit model of stromal keratitis was evaluated. All animals received daily slit lamp evaluations from day 3 through day 7 and on days 9 and 10 PI. The ocular HSV-1-induced disease severity was recorded daily. The topical efficacy of Compounds 23, 96 and 82 on stromal HSV-1 infection in the rabbit model of stromal keratitis was evaluated. All animals received daily slit lamp evaluations for day 3 through day 7 PI. The ocular HSV-1-induced disease severity was recorded daily. The topical efficacy of Compounds 23 and 96 in combination with TFT on stromal HSV-1 infection in the rabbit model of stromal keratitis was evaluated. Groups 1, 2 and 3 each have 5 animals for a total of 10 eyes per combination therapy. This allowed minimization of individual animal variability and performance of a statistical analysis on the results of the combination therapies. Groups 3, 4 and 5 have 2 animals each. These single-agent therapies were used to verify previously reported data on the efficacy of these compounds. The compounds are used at a lower frequency of delivery to match the dosing regimen of the combination-agent group. Consequently, the study also provides comparative information on Compounds 23 and 96 as a lower frequency of topical administration (4 times per day vs. 9 times per day in previous studies).

[4] = test system: RE strain HSV-1; assay: HSV-1 recovery from tear film, cornea and trigeminal ganglia of treated rabbits; type: in vivo, NZW rabbit
Source text: The specified number of NZW rabbits (1.5-2.0 kg) were used. Animals were received at least two days prior to inoculation to allow them to accommodate to the conditions in the vivarium facility. This conditioning of the animals prior to inoculation minimizes animal variability. After the accommodation, the animals received a slit-lamp examination to exclude any animals with pre-existing anterior segment ocular defects. Animals were bi-laterally inoculated by intrastromal injection of 10^5 PFU RE strain HSV-1. The animals were then replaced individually into cages.
[…] This was carried out by obtaining tear film by swabbing the lower and upper conjunctival sacs and retaining the swab in the nasal fornix for 10 seconds. The swabs were eluted individually in HBSS. 50 μl aliquots of the virus-HBSS eluate were absorbed under confluent HFF cell monolayers for 5 minutes. The monolayers were hydrated with MEM, incubated at 37° C. and observed daily for 1 to 2 weeks to detect developing cytopathology consistent with HSV infection (HSV CPE).
(§2) On day 10 PI, the animals were sacrificed, the corneal epithelium was scraped from the eyes and epithelial and corneal stromal cultures were preformed on HFF cell monolayers. The separation of epithelial virus from deeper stromal virus infection allows for analysis of HSV in these distinct corneal layers. Corneal epithelial and stromal co-cultures were evaluated daily by inverted light microscopy.
At sacrifice, trigeminal ganglia were removed, washed in HBSS, minced and floated over duplicate HFF cell monolayers. The cell co-cultures were monitored by inverted light microscopy for 2 weeks. Negative cultures were blind passaged twice at 7 day intervals. Detection of HSV CPE in the whole-cell co-cultures was scored either positive or negative. HSV recovery from inventive compound-treated, TFT-treated and placebo-treated trigeminal ganglia was compared and differences in recovery rates analyzed.
as §2, with “7” for “10”, “performed” for “preformed”

CC([O-])=CC(C)=NCCN=C(C)C=C(C)[O-].Cc1cnc[nH]1.Cc1cnc[nH]1.[Br-].[Co+3] [Compound 97]
toxicity effects ([1]; 24 h, 0.00 mg/ml (so in the source)): - | toxicity effects ([1]; 24 h, 0.01 mg/ml): - | toxicity effects ([1]; 24 h, 0.5 mg/ml): - | toxicity effects ([1]; 48 h, 0.00 mg/ml (so in the source)): - | toxicity effects ([1]; 48 h, 0.01 mg/ml): - | toxicity effects ([1]; 48 h, 0.5 mg/ml): - | toxicity effects ([1]; 48 h, 5 mg/ml): + | virucidal efficacy (HSV-1 titer) ([2]; Run 1, 0.0001 mg/ml): 10^5 PFU/ml | virucidal efficacy (HSV-1 titer) ([2]; Run 1, 0.001 mg/ml): 10^5 PFU/ml | virucidal efficacy (HSV-1 titer) ([2]; Run 1, 0.01 mg/ml): 10^4 PFU/ml | virucidal efficacy (HSV-1 titer) ([2]; Run 1, 0.1 mg/ml): 10^1 PFU/ml | virucidal efficacy (HSV-1 titer) ([2]; Run 1, 1 mg/ml): 0 PFU/ml | virucidal efficacy (HSV-1 titer) ([2]; Run 1, 5 mg/ml): 0 PFU/ml | virucidal efficacy (HSV-1 titer) ([2]; Run 2, 0.001 mg/ml): 10^4 PFU/ml | virucidal efficacy (HSV-1 titer) ([2]; Run 2, 0.01 mg/ml): 10^1 PFU/ml | virucidal efficacy (HSV-1 titer) ([2]; Run 2, 0.1 mg/ml): 0 PFU/ml | virucidal efficacy (HSV-1 titer) ([2]; Run 2, 1 mg/ml): 0 PFU/ml | virucidal efficacy (HSV-1 titer) ([2]; Run 2, 5 mg/ml): 0 PFU/ml | effective virucidal concentration IC50 ([2]; Experiment 5 (Table 14), HSV-1): 0.1-.1 mg/ml | effective virucidal concentration IC90 ([2]; Experiment 5 (Table 14), HSV-1): 100 to 1000 µg/mL

O=c1[nH]c(=O)n([C@H]2C[C@H](O)[C@@H](CO)O2)cc1C(F)(F)F [TFT, trifluorothymidine]
efficacy ranking during stromal HSV-1 infection ([3]; Example 3, all eyes, FIG. 1, 1 mg/ml (TFT 0.1%), 9x/day, 5 days): Compound 96>>Compound 23>TFT>Placebo | efficacy ranking, average stromal disease scores ([3]; Example 4, FIG. 2): Compound 96>Compound 82>Compound 23>TFT=Placebo | effect on stromal disease severity/progression ([3]; Example 5, FIG. 5, initial stromal disease <0.5 on day 3 PI): ineffective in reducing the stromal disease severity | effect on development and progression of stromal disease ([3]; Example 5, FIG. 7, score <0.5 on day 3 PI, 4 times per day): ineffective in reducing the development and progression of stromal disease | HSV-1 recovery, corneal epithelium (C.E.) ([4]; Example 3 (Table 22)): 60% | HSV-1 recovery, corneal stroma (C.S.) ([4]; Example 3 (Table 22)): 60% | HSV-1 recovery, trigeminal ganglia (T.G.) ([4]; Example 3 (Table 22)): 60% | HSV-1 recovery, tear film (positive samples of total) ([4]; Example 3 (Table 22), day 3 PI): 100% | HSV-1 recovery, tear film (positive samples of total) ([4]; Example 3 (Table 22), day 5 PI): 80% | HSV-1 recovery, tear film (positive samples of total) ([4]; Example 3 (Table 22), day 7 PI): 30% | HSV-1 recovery, tear film (positive samples of total) ([4]; Example 3 (Table 22), day 9 PI): 0% | HSV-1 recovery, corneal stroma ([4]; Example 5 (Table 23)): 70% | HSV-1 recovery (positive cultures per total) ([4]; Example 5 (Table 23), column 1): 0% | HSV-1 recovery (positive cultures per total) ([4]; Example 5 (Table 23), column 3): 100% | HSV-1 recovery (positive cultures per total) ([4]; Example 5 (Table 23), column 5): 90% | HSV-1 recovery (positive cultures per total) ([4]; Example 5 (Table 23), column 7): 70%

Source: patent US5756491A, “Antiviral cobalt-organic compounds” (priority 1991, dated 1998)
